In patent publication US9732046B2, “Substituted 1,2,4-triazines as tubulin inhibitors” (YM Biosciences Australia Pty Ltd., priority 2003, dated 2017):

Assays:
Format in all cases: cell-based
[1] = tested on: K562 (Chronic Myeloid Leukemia); experiment: Cellular growth inhibition assay (MTT), K562; conditions: Homo sapiens, Table 1, 40 hr incubation
Procedure: (§1) For screening purposes, compounds were diluted in 96 well plates at a concentration of 20 μM. Plates were warmed at 37° C. for 30 minutes before assay.
(§2) K562 (Chronic Myeloid Leukemia), PC3 (Prostate Cancer), and DU145 (Prostate Cancer) were obtained from the American Type Culture Collection (ATCC). K562 was grown in RPMI, with 10% FBS with Glutamx added. DU145 cells were cultured in DMED, with 10% FBS and Glutamx and MEM non-essential amino acids added. PC3 cells were grown in F12K medium, with 10% FBS and Glutamx and MEM non-essential amino acids added. All cells were grown at 37° C. in 5% CO2.
(§3) Cell suspensions were prepared by harvesting cells from culture. (Cells used in this test should be in later log phase growth and high viability.) Cells were diluted in correct growth medium to 1.1× final concentration (from 50000 cell/mL to 200,000 cell/mL, depending on cell line).
(§4) Compounds to be tested were added (10 μL, 10× final concentration) to a flat bottom 96-well plate. The cellular suspension (90 μL per well) was added, and the plate incubated for 40 hr at 37° C., 5% CO2. MTT (20 μL per well, 5 mg/mL in PBS) was added and the plates were returned to the incubator for a further 6 hours. Lysis buffer (100 μL per well, 10% SDS, 0.01N HCl) was added and the plate stored in the incubator overnight. The plate was then read at 590 nm.

[2] = molecular target: T1, TelJak2 (BaF3 TELJAK cells, TEL/Jak2 fusion) (Homo sapiens, UniProt O60674); experiment: Cellular growth inhibition assay (MTT), BaF3 TEL:JAK2 cell line; conditions: Table 1, 40 hr incubation
T1 construct: The regions encompassing the kinase domain of JAK2 (nucleotides 2994-3914); expressed in transfected cells; host or cells: BaF3 cells bearing the pTET-off plasmid, transfected with pTELJAK2 (pTRE2 vector); the other entry of the earlier key: ETV6 (P41212, Transcription factor ETV6)
Procedure: as §1
(§5) The coding region encompassing nucleotides 1-487 of TEL was amplified by PCR using the oligonucleotides 5TEL (5′-GGAGGATCCTGATCTCTCTCGCTGTGAGAC-3′) (SEQ ID NO: 1) and 3TEL (5′-AGGC GTCGACTTCTTCTTGATGGTTCTG-3′) (SEQ ID NO: 2) and U937 mRNA as template. A BamH I site was incorporated into the 5TEL primer, and a Sal I site was incorporated into the 3TEL primer. The regions encompassing the kinase domain of JAK2 (nucleotides 2994-3914; JAK2F 5′-ACGC GTCGACGGTGCCTTTGAAGACCGGGAT-3 (SEQ ID NO: 3); JAK2R 5′-ATAGTTTAGCGGCCGCTCAGAATGAAGGTCATTT-3′) (SEQ ID NO: 4) and JAK3 (nucleotides 2520-3469; JAK3F 5′-GAAGTCGACTATGCCTGCCAAGACCCCACGATCTT-3′ (SEQ ID NO: 5); JAK3R 5′-GGATCTAGACTATGAAAAGGACAGGGAGTGGTGTTT-3′ (SEQ ID NO: 6)) were generated by PCR using Taq DNA polymerase (Gibco/BRL) and U937 mRNA as template. A Sal I site was incorporated into the forward primer of JAK2 and JAK3, a Not I site was incorporated into the JAK2 reverse primer and a Xba I site was added to the reverse primer of JAK3.
(§6) A TEL/Jak2 fusion was generated by digestion of the TELPCR product with BamH I/Sa1 I, digestion of the JAK2 PCR product with Sa1 I/Not I followed by ligation and subcloning into the mammalian expression Vector pTRE 2 (Clontech) digested with BamH I-Not I (pTELJAK2). For JAK3 Sa1 I/Not I cleaved kinase domain PCR product was ligated with BamH I/Sa1 I cleaved TELproduct followed by ligation into BamH I/Not I cleaved pTRE2 (pTELJAK3).
(§7) The growth factor dependent myelomonocytic cell line BaF3 bearing the pTET-off plasmid (Clontech) was transfected with either pTELJAK2 or pTELJAK3 and the cells selected for factor independent growth. BaF 3 wild type cells were cultured in DMEM 10% FCS, 10% WEHI 3B conditioned medium. BaF3 TELJAK cells were cultured in DMEM 10% Tet-System Approved FBS (without WEHI 3B conditioned medium).
as §3, §4

PC3 (Prostate Cancer) = experiment: Cellular growth inhibition assay (MTT), PC3; conditions: Table 1, 40 hr incubation
Procedure: as §1, §2, §3, §4

DU145 (Prostate Cancer) = experiment: Cellular growth inhibition assay (MTT), DU145; conditions: Homo sapiens, DU-145, Table 1, 40 hr incubation
Procedure: as §1, §2, §3, §4

[3] = molecular target: T2, TelJak3 (BaF3 TELJAK cells, TEL/JAK3 fusion) (Homo sapiens, UniProt P52333); experiment: Cellular growth inhibition assay (MTT), BaF3 TEL:JAK3 cell line; conditions: Table 1, 40 hr incubation
T2 construct: For JAK3 Sa1 I/Not I cleaved kinase domain PCR product was ligated with BamH I/Sa1 I cleaved TELproduct; expressed in transfected cells; host or cells: BaF3 cells bearing the pTET-off plasmid, transfected with pTELJAK3 (pTRE2 vector); the other entry of the earlier key: ETV6 (P41212, Transcription factor ETV6)
Procedure: as §1, §5, §6, §7, §3, §4

T2 sequence (P52333 with tags, fused parts or gaps): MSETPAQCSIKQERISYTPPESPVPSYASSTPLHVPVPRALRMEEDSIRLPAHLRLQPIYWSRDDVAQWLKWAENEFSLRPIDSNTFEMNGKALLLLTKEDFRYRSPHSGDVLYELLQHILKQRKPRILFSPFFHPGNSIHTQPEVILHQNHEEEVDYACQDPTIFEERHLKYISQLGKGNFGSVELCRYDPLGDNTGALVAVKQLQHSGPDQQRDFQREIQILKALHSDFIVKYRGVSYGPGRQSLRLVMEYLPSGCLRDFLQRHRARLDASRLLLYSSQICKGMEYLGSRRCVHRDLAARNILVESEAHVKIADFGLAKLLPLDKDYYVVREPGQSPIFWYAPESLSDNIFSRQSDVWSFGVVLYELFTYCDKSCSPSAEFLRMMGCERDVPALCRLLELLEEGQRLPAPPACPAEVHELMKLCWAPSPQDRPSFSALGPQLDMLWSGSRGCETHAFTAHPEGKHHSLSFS
T1 sequence (O60674 with tags, fused parts or gaps): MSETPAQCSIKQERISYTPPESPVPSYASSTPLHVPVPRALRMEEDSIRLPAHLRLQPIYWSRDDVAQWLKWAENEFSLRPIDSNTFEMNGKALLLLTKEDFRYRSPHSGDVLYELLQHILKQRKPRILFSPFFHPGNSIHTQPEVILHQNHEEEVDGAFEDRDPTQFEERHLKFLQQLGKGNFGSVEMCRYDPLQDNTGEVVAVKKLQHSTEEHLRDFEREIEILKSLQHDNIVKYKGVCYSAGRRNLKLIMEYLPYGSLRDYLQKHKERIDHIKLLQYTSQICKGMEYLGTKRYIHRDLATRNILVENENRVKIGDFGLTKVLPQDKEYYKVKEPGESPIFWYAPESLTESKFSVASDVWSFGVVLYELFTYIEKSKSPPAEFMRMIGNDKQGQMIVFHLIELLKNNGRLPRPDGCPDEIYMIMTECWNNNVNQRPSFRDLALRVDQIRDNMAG

Structure (SMILES) | inhibition at 20 µM [1] [%] | inhibition at 20 µM [2] [%] | inhibition at 20 µM (PC3 (Prostate Cancer)) [%] | inhibition at 20 µM (DU145 (Prostate Cancer)) [%] | inhibition at 20 µM [3] [%]
CCCC(Nc1cncc(-c2ccc(OCCN(CC)CC)c(OC)c2)n1)c1cncc(C)c1 (stereo not drawn) | > 50 | > 50 | < 50 | < 50 | > 50
CCCC(Nc1cncc(-c2ccc(CN3CCCCC3)cc2)n1)c1ccccc1 (stereo not drawn) | < 50 | > 50 | < 50 | < 50 | > 50
CCCC(Nc1cncc(-c2ccc(CN3CCOCC3)cc2)n1)c1ccccc1 (stereo not drawn) | < 50 | > 50 | < 50 | < 50 | < 50
CCCC(Nc1cncc(-c2ccc(CN3CCN(C)CC3)cc2)n1)c1ccccc1 (stereo not drawn) | < 50 | > 50 | < 50 | < 50 | > 50
CCCC(Nc1cncc(-c2ccc(OCCCN3CCOCC3)c(OC)c2)n1)c1ccccc1 (stereo not drawn) | > 50 | > 50 | > 50 | < 50 | > 50
CCCC(Nc1cncc(-c2ccc(NC(=O)N3CCN(C)CC3)c(OC)c2)n1)c1cccnc1 (stereo not drawn) | < 50 | > 50 | > 50 | < 50 | > 50
CCCC(Nc1cncc(-c2ccc(CNC(=O)C3CCC(=O)N3)cc2)n1)c1ccccc1 (stereo not drawn) | > 50 | > 50 | < 50 | < 50 | > 50
CCCC(Nc1cncc(-c2ccc(OCCCCN3CCOCC3)c(OC)c2)n1)c1ccccc1 (stereo not drawn) | > 50 | > 50 | < 50 | < 50 | > 50
CCCC(Nc1cncc(-c2ccc(CN(C)C)cc2)n1)c1ccccc1 (stereo not drawn) | > 50 | > 50 | < 50 | < 50 | > 50
CCCC(Nc1cncc(-c2ccc(CN3CCC[C@H]3CO)cc2)n1)c1ccccc1 (stereo partly drawn) | > 50 | > 50 | < 50 | < 50 | > 50
CCCC(Nc1cncc(-c2ccc(CN3CCC(O)CC3)cc2)n1)c1ccccc1 (stereo not drawn) | > 50 | > 50 | < 50 | < 50 | > 50
CCCC(Nc1cncc(-c2ccc(NC(=O)NCC)cc2)n1)c1cccnc1 (stereo not drawn) | > 50 | > 50 | < 50 | < 50 | > 50
CCCC(Nc1cncc(-c2ccc(NC(=O)c3cccnc3)c(OC)c2)n1)c1cccnc1 (stereo not drawn) | > 50 | > 50 | < 50 | < 50 | > 50
COc1cc(-c2nc(N[C@H](C)c3ccccc3)nnc2C)cc(OC)c1OC | < 50 | > 50 | < 50 | < 50 | > 50
CCCC(Nc1cncc(-c2cc(OC)c(OC)c(OC)c2)c1)c1ccccc1 (stereo not drawn) | > 50 | > 50 | > 50 | < 50 | > 50
CCCC(Nc1cncc(-c2ccc(NC(=O)C3CCNCC3)c(OC)c2)n1)c1cccnc1 (stereo not drawn) | > 50 | > 50 | < 50 | < 50 | < 50
CCCC(Nc1cncc(-c2ccc(C(=O)N3CCN(C)CC3)cc2)n1)c1ccccc1 (stereo not drawn) | < 50 | > 50 | < 50 |  | > 50
CCCC(Nc1cncc(-c2ccc(C(=O)N3CCOCC3)cc2)n1)c1ccccc1 (stereo not drawn) | < 50 | > 50 | < 50 |  | > 50
CCNC(=O)Nc1ccc(-c2cncc(NC(C)c3cccnc3)n2)cc1OC (stereo not drawn) |  | > 50 | < 50 |  | > 50
CCCC(Nc1cncc(-c2ccc(OCCCN3CCN(C)CC3)c(OC)c2)n1)c1cccnc1 (stereo not drawn) | < 50 | > 50 | < 50 | < 50 | > 50
CCCC(Nc1cncc(-c2ccc(OCCCN3CCCC3)c(OC)c2)n1)c1cccnc1 (stereo not drawn) | > 50 | > 50 | < 50 | < 50 | > 50
CCCC(Nc1cncc(-c2ccc(OCCCN3CCOCC3)c(OC)c2)n1)c1cccnc1 (stereo not drawn) | < 50 | > 50 | < 50 | < 50 | > 50
CCCC(Nc1cncc(-c2ccc(NC(=O)NCCCN(CC)CC)c(OC)c2)n1)c1cccnc1 (stereo not drawn) | < 50 | > 50 | < 50 | < 50 | > 50
CCCC(Nc1cncc(-c2ccc(CO)c(OC)c2)n1)c1cccnc1 (stereo not drawn) | > 50 | > 50 | < 50 | < 50 | > 50
CCC[C@H](Nc1cncc(-c2ccc(NC(=O)CN(C)C)c(OC)c2)n1)c1cccnc1 | > 50 | > 50 | > 50 | > 50 | > 50
CCCC(Nc1cncc(-c2ccc(C(=O)NCCCCCN)c(C)c2)n1)c1cccnc1 (stereo not drawn) | > 50 | > 50 | < 50 | < 50 | > 50
COc1cc(-c2ncc(C)c(NC(CCO)c3ccccc3)n2)ccc1O (stereo not drawn) | > 50 | > 50 | < 50 | > 50 | > 50
CCCC(Nc1nnc(C)c(-c2cc(OC)c(OC)c(OC)c2)n1)c1ccccc1 (stereo not drawn) | > 50 | > 50 | < 50 | < 50 | > 50
COc1cc(-c2nc(N[C@H](C)c3ccccc3)nnc2C)ccc1O | > 50 | > 50 | < 50 | < 50 | > 50
